Data reported in ChEMBL document CHEMBL1201862, “PubChem BioAssay data set” (2004).
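Assay format: 96-well plates, 48-hour exposure. GI50 marks 50% less growth.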 The source made the active and inactive calls. No stated cut-off is given here; in the data, active = GI50 up to about 1.1 µM and inactive = higher.

Assays:
Experiment in all cases: NCI anticancer screen, dose series, 48 h
HT-29 = test system: HT-29
U-251 = test system: U-251
OVCAR-3 = test system: OVCAR-3
SF-539 = test system: SF-539
HL-60 = test system: HL-60
HCT-15 = test system: HCT-15
CCRF-CEM = test system: CCRF-CEM
SK-MEL-28 = test system: SK-MEL-28
NCI/ADR-RES = test system: NCI/ADR-RES
NCI-H460 = test system: NCI-H460
A498 = test system: A498
PC-3 = test system: PC-3
EKVX = test system: EKVX
SK-MEL-5 = test system: SK-MEL-5
Hs-578T = test system: Hs-578T
A549 = test system: A549
DU-145 = test system: DU-145
MDA-MB-435 = test system: MDA-MB-435
SF-268 = test system: SF-268

Compound | GI50 (HT-29) | GI50 (U-251) | GI50 (OVCAR-3) | GI50 (SF-539) | GI50 (HL-60) | GI50 (HCT-15) [µM] | GI50 (CCRF-CEM) | GI50 (SK-MEL-28) | GI50 (NCI/ADR-RES) | GI50 (NCI-H460) | GI50 (A498) | GI50 (PC-3) | GI50 (EKVX) | GI50 (SK-MEL-5) | GI50 (Hs-578T) | GI50 (A549) | GI50 (DU-145) | GI50 (MDA-MB-435) | GI50 (SF-268)
CC(=O)OC1OC(c2ccoc2)C[C@@]12C1CCC3O[C@]3(C)[C@]1(C)[C@H](OC(C)=O)[C@H](OC(C)=O)[C@H]2C (some centres not stated) | > 37.5 µM (inactive) | > 37.5 µM (inactive) | > 37.5 µM (inactive) | > 37.5 µM (inactive) | 6.62 µM (inactive) | > 37.5 | 11.2 µM (inactive) | > 37.5 µM (inactive) | > 37.5 µM (inactive) | > 37.5 µM (inactive) | > 37.5 µM (inactive) | > 37.5 µM (inactive) | > 37.5 µM (inactive) | > 37.5 µM (inactive) | > 37.5 µM (inactive) | > 37.5 µM (inactive) | – | – | –
COc1cccc(C(=O)Nc2c3ccccc3nc3ccccc23)c1OC | > 100 µM (inactive) | > 100 µM (inactive) | > 100 µM (inactive) | > 100 µM (inactive) | > 100 µM (inactive) | > 100 | > 100 µM (inactive) | > 100 µM (inactive) | > 100 µM (inactive) | 76.2 µM (inactive) | – | > 100 µM (inactive) | > 100 µM (inactive) | 29.2 µM (inactive) | 36.8 µM (inactive) | 84.9 µM (inactive) | > 100 µM (inactive) | > 100 µM (inactive) | 74.1 µM (inactive)
CC(=O)O[C@H]1C(=O)[C@@]2(C)[C@H]([C@H](OC(=O)c3ccccc3)[C@]3(O)C[C@H](OC(=O)[C@H](O)[C@@H](NC(=O)c4ccccc4)C4CCCCC4)C(C)=C1C3(C)C)[C@]1(OC(C)=O)CO[C@@H]1C[C@@H]2O | < 0.01 µM (active) | < 0.01 µM (active) | < 0.01 µM (active) | < 0.01 µM (active) | < 0.01 µM (active) | 0.12 | < 0.01 µM (active) | 34.1 µM (inactive) | 2.96 µM (inactive) | < 0.01 µM (active) | – | 0.0468 µM (active) | 3 µM (inactive) | < 0.01 µM (active) | < 0.01 µM (active) | < 0.0173 µM (active) | – | < 0.01 µM (active) | < 0.01 µM (active)
COc1ccc(C2c3cc4c(cc3OC(NNS(=O)(=O)c3ccc(C)cc3)C2C)OCO4)cc1 (configuration not stated) | 93.8 µM (inactive) | 83.4 µM (inactive) | 80.7 µM (inactive) | > 100 µM (inactive) | 21.6 µM (inactive) | 70.1 | 11.1 µM (inactive) | > 100 µM (inactive) | – | 41 µM (inactive) | 78.5 µM (inactive) | 21 µM (inactive) | – | 69.5 µM (inactive) | 27.7 µM (inactive) | 29.3 µM (inactive) | > 100 µM (inactive) | 54.6 µM (inactive) | > 100 µM (inactive)
CC(=O)OCc1ccc(O)c(C=O)c1 | > 100 µM (inactive) | 74.8 µM (inactive) | > 100 µM (inactive) | > 100 µM (inactive) | 39.6 µM (inactive) | 46.5 | 46.3 µM (inactive) | > 100 µM (inactive) | > 100 µM (inactive) | > 100 µM (inactive) | – | 88.9 µM (inactive) | 28.4 µM (inactive) | > 100 µM (inactive) | > 100 µM (inactive) | > 100 µM (inactive) | > 100 µM (inactive) | > 100 µM (inactive) | 64.9 µM (inactive)
COc1ccc2c(c1)CC[C@@H]1C2CC[C@]2(C)C(=O)N(CCN(C)C)C(=O)CC12 (some centres not stated) | > 100 µM (inactive) | > 100 µM (inactive) | > 100 µM (inactive) | > 100 µM (inactive) | > 100 µM (inactive) | – | > 100 µM (inactive) | > 100 µM (inactive) | – | > 100 µM (inactive) | > 100 µM (inactive) | > 100 µM (inactive) | > 100 µM (inactive) | 83.9 µM (inactive) | > 100 µM (inactive) | > 100 µM (inactive) | > 100 µM (inactive) | > 100 µM (inactive) | > 100 µM (inactive)
CCNC1(c2cccc(C)c2)OC(C)(C)c2cccc3cccc1c23 (configuration not stated) | 14 µM (inactive) | 16.9 µM (inactive) | 17.3 µM (inactive) | 17.9 µM (inactive) | 0.646 µM (active) | 19.6 | 2.5 µM (inactive) | – | 19.8 µM (inactive) | 15.2 µM (inactive) | 17.5 µM (inactive) | – | 18.8 µM (inactive) | 19.1 µM (inactive) | 20.1 µM (inactive) | 15.6 µM (inactive) | 17.7 µM (inactive) | 16.9 µM (inactive) | 16 µM (inactive)
C=CCNC(=O)NC1=CSC2=NC(=O)C3(NN12)c1ccccc1-c1ccccc13 | > 10 µM (inactive) | – | – | > 10 µM (inactive) | > 10 µM (inactive) | > 10 | > 10 µM (inactive) | > 10 µM (inactive) | > 10 µM (inactive) | > 10 µM (inactive) | – | > 10 µM (inactive) | > 10 µM (inactive) | > 10 µM (inactive) | 4.16 µM (inactive) | > 10 µM (inactive) | > 10 µM (inactive) | > 10 µM (inactive) | > 10 µM (inactive)
N#CC(c1cc2c(cc1Br)OCO2)N1CCOCC1 (configuration not stated) | 42.5 µM (inactive) | – | 30.1 µM (inactive) | 29.7 µM (inactive) | 3.33 µM (inactive) | – | 7.26 µM (inactive) | > 100 µM (inactive) | 27.1 µM (inactive) | > 100 µM (inactive) | – | 15.3 µM (inactive) | 44.3 µM (inactive) | 26.1 µM (inactive) | 25.6 µM (inactive) | > 100 µM (inactive) | 48.5 µM (inactive) | 4.05 µM (inactive) | 73.8 µM (inactive)
CC(C)(C)CN1[C@@H]2CCCC[C@H]2N(CC(C)(C)C)P1(=O)Cc1ccccc1 | 10.1 µM (inactive) | 13.4 µM (inactive) | 10.7 µM (inactive) | 17.3 µM (inactive) | 11.3 µM (inactive) | 12 | 11 µM (inactive) | 16.9 µM (inactive) | 12.1 µM (inactive) | 13.2 µM (inactive) | – | 6.5 µM (inactive) | 14.3 µM (inactive) | 12.2 µM (inactive) | 15.7 µM (inactive) | 11.6 µM (inactive) | 15.6 µM (inactive) | 16.2 µM (inactive) | 15 µM (inactive)
CCOc1ccc(/C=C2/C(=O)N/C(=N\C(C)=O)N2C)cc1 | > 100 µM (inactive) | > 100 µM (inactive) | > 100 µM (inactive) | > 100 µM (inactive) | 17.9 µM (inactive) | 64.7 | – | > 100 µM (inactive) | > 100 µM (inactive) | 67.5 µM (inactive) | > 100 µM (inactive) | – | 54.2 µM (inactive) | > 100 µM (inactive) | – | > 100 µM (inactive) | > 100 µM (inactive) | > 100 µM (inactive) | > 100 µM (inactive)
O=C(O)c1ccccc1/C=C1\Cc2cc3c(cc2C1=O)CCC3 | 19.2 µM (inactive) | 30.1 µM (inactive) | 31.2 µM (inactive) | 29.1 µM (inactive) | 6.59 µM (inactive) | 16.3 | 18.8 µM (inactive) | 50.5 µM (inactive) | 17.3 µM (inactive) | 24.2 µM (inactive) | 30.8 µM (inactive) | – | 32.1 µM (inactive) | 18.1 µM (inactive) | – | 30.1 µM (inactive) | 25.3 µM (inactive) | 12.7 µM (inactive) | 35.3 µM (inactive)
O=C(Cc1cccs1)N[C@@H]1C(=O)N2C(C(=O)OC(c3ccccc3)c3ccccc3)=C(CO)CS[C@H]12 | – | > 100 µM (inactive) | > 100 µM (inactive) | > 100 µM (inactive) | 46.6 µM (inactive) | 92.7 | 20 µM (inactive) | – | 96.6 µM (inactive) | 75.2 µM (inactive) | > 100 µM (inactive) | > 100 µM (inactive) | > 100 µM (inactive) | > 100 µM (inactive) | – | > 100 µM (inactive) | > 100 µM (inactive) | 65.9 µM (inactive) | –
CC1(C)OCC(C2OC(OC(=O)c3ccc(C(F)(F)F)cc3)C3OC(C)(C)OC23)O1 (configuration not stated) | 73.1 µM (inactive) | 57.8 µM (inactive) | > 77.4 µM (inactive) | > 77.4 µM (inactive) | – | > 77.4 | 28.2 µM (inactive) | > 77.4 µM (inactive) | 62.1 µM (inactive) | 49.5 µM (inactive) | > 77.4 µM (inactive) | > 77.4 µM (inactive) | > 77.4 µM (inactive) | 74.5 µM (inactive) | – | > 77.4 µM (inactive) | > 77.4 µM (inactive) | > 77.4 µM (inactive) | 45.4 µM (inactive)
CN(Cc1cc(Cl)c(Cl)cc1NC(=O)CN)[C@H]1CCCC[C@@H]1N1CCCC1 | 19 µM (inactive) | 5.2 µM (inactive) | 74 µM (inactive) | – | 40.4 µM (inactive) | – | 30.3 µM (inactive) | 19.8 µM (inactive) | > 100 µM (inactive) | 21.8 µM (inactive) | 18.4 µM (inactive) | 50.7 µM (inactive) | 34.9 µM (inactive) | 17.7 µM (inactive) | 24.9 µM (inactive) | 38.3 µM (inactive) | – | 15.6 µM (inactive) | 68.2 µM (inactive)
Cc1ccc(C)n2c1nc1cc3ccccc3cc12 | – | 30.4 µM (inactive) | 25.1 µM (inactive) | 30.7 µM (inactive) | 53.8 µM (inactive) | 4.92 | 33.4 µM (inactive) | 45 µM (inactive) | 49.4 µM (inactive) | – | – | 32.4 µM (inactive) | 64.6 µM (inactive) | 17.1 µM (inactive) | 60.3 µM (inactive) | 28.6 µM (inactive) | 51.9 µM (inactive) | 44.8 µM (inactive) | 64 µM (inactive)
